Source: US20080051429A1, “USE OF 4-AMINO-PIPERIDINES FOR TREATING SLEEP DISORDERS” (priority 2006, published 2008)
Like-named read-outs stand apart in the source and are kept apart here. Blank lines part the entries; values can stand above or below the compound they belong to.

Legend:
Plasma levels (LC/MS/MS) = type: in vivo, human; settings: after 13 days; for plasma concentration, Mean: n = 9
Procedure: Plasma Levels: Blood samples were collected into Vacutainer® (dry sodium heparin, green top tube, 6 mL capacity) on Day −1 and again on Day 14 (pre-dose). The time interval between blood collection and freezing of the plasma was no longer than 45 minutes. Within 45 minutes of collection, the plasma fractions were separated by centrifugation at 3,000 rotations per minutes for 10 minutes. The plasma fractions were divided and transferred into two properly labeled storage tubes and frozen at approximately −70° C. Plasma samples were evaluated for N-(1-methylpiperidin-4-yl)-N-(4-fluorophenylmethyl)-N′-(4-(2-methylpropyloxy)phenylmethyl)carbamide using a validated high performance liquid chromatography/tandem mass spectrometric (LC/MS/MS) assay.

D2 = D2 (Homo sapiens, UniProt P14416); assay: R-SAT broad profiling; type: cell-based; parameters: expressed in transfected cells; host or cells: NIH3T3; settings: read-out: pEC50 or pIC50 (converted)
D2, sequence (P14416 whole entry): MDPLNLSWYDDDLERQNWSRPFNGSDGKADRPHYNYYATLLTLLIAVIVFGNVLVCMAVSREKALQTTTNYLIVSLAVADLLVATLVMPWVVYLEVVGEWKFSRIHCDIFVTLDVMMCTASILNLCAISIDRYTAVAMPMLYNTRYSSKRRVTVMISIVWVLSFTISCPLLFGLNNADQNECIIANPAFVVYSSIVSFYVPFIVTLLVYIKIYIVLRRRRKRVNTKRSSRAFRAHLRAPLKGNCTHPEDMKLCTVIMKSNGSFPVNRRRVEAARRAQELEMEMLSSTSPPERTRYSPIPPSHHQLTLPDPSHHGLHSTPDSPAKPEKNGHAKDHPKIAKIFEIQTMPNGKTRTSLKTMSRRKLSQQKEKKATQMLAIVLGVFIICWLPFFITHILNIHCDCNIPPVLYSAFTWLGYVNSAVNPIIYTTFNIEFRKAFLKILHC
Procedure: (§1) The functional receptor assay, Receptor Selection and Amplification Technology (R-SAT), was used (with minor modifications from that previously described U.S. Pat. No. 5,707,798) to screen compounds for efficacy at the 5-HT2A receptor. Briefly, NIH3T3 cells were grown in 96 well tissue culture plates to 70-80% confluence. Cells were transfected for 12-16 hours with plasmid DNAs using superfect (Qiagen Inc.) as per manufacture's protocols. R-SAT's were generally performed with 50 ng/well of receptor and 20 ng/well of Beta-galactosidase plasmid DNA. All receptor and G-protein constructs used were in the pSI mammalian expression vector (Promega Inc) as described in U.S. Pat. No. 5,707,798. The 5HT2A receptor gene was amplified by nested PCR from brain cDNA using the oligodeoxynucleotides based on the published sequence (see Saltzman et. al. Biochem. Biophys. Res. Comm. 181:1469-78 (1991)). Large-scale transfections, cells were transfected for 12-16 hours, then trypsinized and frozen in DMSO. Frozen cells were later thawed, plated at 10,000-40,000 cells per well of a 96 well plate that contained drug. With both methods, cells were then grown in a humidified atmosphere with 5% ambient CO2 for five days. Media was then removed from the plates and marker gene activity was measured by the addition of the beta-galactosidase substrate ONPG (in PBS with 5% NP-40). The resulting colorimetric reaction was measured in a spectrophotometric plate reader (Titertek Inc.)at […]. All data were analyzed using the computer program XLFit (IDBSm). Efficacy is the percent maximal repression compared to repression by a control compound (ritanserin in the case of 5HT2A). pIC50 is the negative of the log(IC50), where IC50 is the calculated concentration in Molar that produces 50% maximal repression.
(§2) The R-SAT assay (described above in example 289) was used to investigate the selectivity of 4-(4-Fluoro-benzyl)-3-(4-isobutoxy-benzyl)-8-methyl-1-oxa-3,8-diaza-spiro[4.5]decan-2-one.

H1 = H1 (Homo sapiens, UniProt P35367); assay: R-SAT broad profiling; type: cell-based; parameters: expressed in transfected cells; host or cells: NIH3T3; settings: agonist; read-out: pEC50 or pIC50 (converted)
H1, sequence (P35367 whole entry): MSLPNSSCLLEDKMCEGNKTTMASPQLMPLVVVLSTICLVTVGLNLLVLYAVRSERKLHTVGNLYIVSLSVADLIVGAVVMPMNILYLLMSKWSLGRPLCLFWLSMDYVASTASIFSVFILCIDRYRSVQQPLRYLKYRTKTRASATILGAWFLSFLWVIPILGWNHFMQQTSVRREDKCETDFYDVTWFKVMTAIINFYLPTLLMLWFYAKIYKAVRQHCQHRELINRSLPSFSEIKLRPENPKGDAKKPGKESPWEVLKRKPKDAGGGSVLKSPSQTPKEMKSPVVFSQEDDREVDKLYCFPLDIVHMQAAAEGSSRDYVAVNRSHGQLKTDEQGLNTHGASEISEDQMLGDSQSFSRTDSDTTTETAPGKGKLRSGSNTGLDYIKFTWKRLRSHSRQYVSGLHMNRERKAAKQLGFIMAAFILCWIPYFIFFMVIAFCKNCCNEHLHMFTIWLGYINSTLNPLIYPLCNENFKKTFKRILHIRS
Procedure: as §1, §2

5HT2C = target: T1, 5HT2C (Homo sapiens, UniProt P28335); assay: R-SAT broad profiling; type: cell-based; parameters: expressed in transfected cells; host or cells: NIH3T3
T1 sequence (P28335 33-458): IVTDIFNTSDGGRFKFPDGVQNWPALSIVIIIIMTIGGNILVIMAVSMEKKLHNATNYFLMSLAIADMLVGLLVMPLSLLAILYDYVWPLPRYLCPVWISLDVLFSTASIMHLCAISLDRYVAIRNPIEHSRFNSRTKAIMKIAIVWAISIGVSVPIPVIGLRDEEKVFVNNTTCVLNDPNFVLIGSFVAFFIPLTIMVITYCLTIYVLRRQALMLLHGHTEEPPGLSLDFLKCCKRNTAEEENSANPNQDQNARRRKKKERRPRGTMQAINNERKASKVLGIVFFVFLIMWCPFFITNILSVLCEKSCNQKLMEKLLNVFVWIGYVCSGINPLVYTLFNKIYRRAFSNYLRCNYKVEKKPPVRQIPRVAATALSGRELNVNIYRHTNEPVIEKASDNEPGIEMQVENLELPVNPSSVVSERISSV
Procedure: as §1, §2

5HT2B = 5HT2B (Homo sapiens, UniProt P41595); assay: R-SAT broad profiling; type: cell-based; parameters: expressed in transfected cells; host or cells: NIH3T3; settings: read-out: pEC50 or pIC50 (converted)
5HT2B, sequence (P41595 whole entry): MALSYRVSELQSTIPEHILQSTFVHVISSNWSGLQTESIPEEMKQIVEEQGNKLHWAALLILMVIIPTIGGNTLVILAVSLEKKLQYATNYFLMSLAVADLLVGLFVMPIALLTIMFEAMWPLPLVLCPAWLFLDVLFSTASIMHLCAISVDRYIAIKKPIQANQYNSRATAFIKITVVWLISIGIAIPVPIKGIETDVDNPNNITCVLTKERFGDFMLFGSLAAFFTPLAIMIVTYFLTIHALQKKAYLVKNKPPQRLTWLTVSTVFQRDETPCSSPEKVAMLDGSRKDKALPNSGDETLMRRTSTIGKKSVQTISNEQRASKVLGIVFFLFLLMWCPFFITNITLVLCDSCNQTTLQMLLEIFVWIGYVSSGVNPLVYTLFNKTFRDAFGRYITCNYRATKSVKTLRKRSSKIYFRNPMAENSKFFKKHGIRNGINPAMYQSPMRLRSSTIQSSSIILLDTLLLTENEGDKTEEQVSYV
Procedure: as §1, §2

5HT1F = target: T2, 5HT1F (Homo sapiens, UniProt P30939); assay: R-SAT broad profiling; type: cell-based; parameters: expressed in transfected cells; host or cells: NIH3T3; settings: read-out: pEC50 or pIC50 (converted)
T2 sequence (P30939 1-366): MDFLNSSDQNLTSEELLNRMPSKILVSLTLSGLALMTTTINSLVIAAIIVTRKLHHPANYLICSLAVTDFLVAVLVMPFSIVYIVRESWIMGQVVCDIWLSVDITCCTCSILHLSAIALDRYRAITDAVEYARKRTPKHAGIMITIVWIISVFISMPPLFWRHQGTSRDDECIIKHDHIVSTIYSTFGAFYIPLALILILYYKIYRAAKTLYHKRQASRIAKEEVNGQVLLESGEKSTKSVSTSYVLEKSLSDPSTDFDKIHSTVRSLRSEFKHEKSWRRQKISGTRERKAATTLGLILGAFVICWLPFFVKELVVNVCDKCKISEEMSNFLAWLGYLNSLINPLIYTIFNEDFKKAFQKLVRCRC
Procedure: as §1, §2

5HT1D = 5HT1D (Homo sapiens, UniProt P28221); assay: R-SAT broad profiling; type: cell-based; parameters: expressed in transfected cells; host or cells: NIH3T3; settings: read-out: pEC50 or pIC50 (converted)
5HT1D, sequence (P28221 whole entry, species assumed): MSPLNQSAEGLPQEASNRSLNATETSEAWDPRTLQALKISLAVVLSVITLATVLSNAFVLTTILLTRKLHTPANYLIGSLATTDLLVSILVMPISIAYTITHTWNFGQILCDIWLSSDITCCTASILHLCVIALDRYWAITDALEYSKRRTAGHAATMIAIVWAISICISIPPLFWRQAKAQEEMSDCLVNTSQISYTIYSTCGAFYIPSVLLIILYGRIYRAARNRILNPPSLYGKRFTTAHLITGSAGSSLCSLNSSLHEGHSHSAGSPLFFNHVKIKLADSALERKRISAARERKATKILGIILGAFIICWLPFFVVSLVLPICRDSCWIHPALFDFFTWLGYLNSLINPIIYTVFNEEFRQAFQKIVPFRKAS
Procedure: as §1, §2

5HT1B = 5HT1B (Homo sapiens, UniProt P28222); assay: R-SAT broad profiling; type: cell-based; parameters: expressed in transfected cells; host or cells: NIH3T3; settings: read-out: pEC50 or pIC50 (converted)
5HT1B, sequence (P28222 whole entry, species assumed): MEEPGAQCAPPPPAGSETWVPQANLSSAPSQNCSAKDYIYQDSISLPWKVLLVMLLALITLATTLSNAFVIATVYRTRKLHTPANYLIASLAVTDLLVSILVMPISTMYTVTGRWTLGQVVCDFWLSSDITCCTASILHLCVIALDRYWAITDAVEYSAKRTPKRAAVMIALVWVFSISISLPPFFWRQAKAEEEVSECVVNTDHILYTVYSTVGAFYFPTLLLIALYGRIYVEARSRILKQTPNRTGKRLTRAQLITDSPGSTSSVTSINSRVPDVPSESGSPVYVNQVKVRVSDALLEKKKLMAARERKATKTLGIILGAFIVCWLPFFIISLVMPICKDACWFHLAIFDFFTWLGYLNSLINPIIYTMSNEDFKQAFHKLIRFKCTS
Procedure: as §1, §2

plasma concentration, Maximum (Plasma levels (LC/MS/MS); 1 mg once daily): 2.33 ng/mL
plasma concentration, Median (Plasma levels (LC/MS/MS); 1 mg once daily): 1.750 ng/mL
plasma concentration, Minimum (Plasma levels (LC/MS/MS); 1 mg once daily): 0.92 ng/mL
plasma concentration, Mean (Plasma levels (LC/MS/MS); 1 mg once daily): 1.628 ng/mL
plasma concentration, Maximum (Plasma levels (LC/MS/MS); 2.5 mg once daily): 5.55 ng/mL
plasma concentration, Median (Plasma levels (LC/MS/MS); 2.5 mg once daily): 3.360 ng/mL
plasma concentration, Minimum (Plasma levels (LC/MS/MS); 2.5 mg once daily): 2.07 ng/mL
plasma concentration, Mean (Plasma levels (LC/MS/MS); 2.5 mg once daily): 3.647 ng/mL
plasma concentration, Maximum (Plasma levels (LC/MS/MS); 5 mg once daily): 13.00 ng/mL
plasma concentration, Median (Plasma levels (LC/MS/MS); 5 mg once daily): 8.720 ng/mL
plasma concentration, Minimum (Plasma levels (LC/MS/MS); 5 mg once daily): 5.91 ng/mL
plasma concentration, Mean (Plasma levels (LC/MS/MS); 5 mg once daily): 8.516 ng/mL
plasma concentration, Maximum (Plasma levels (LC/MS/MS); 20 mg once daily): 52.70 ng/mL
plasma concentration, Median (Plasma levels (LC/MS/MS); 20 mg once daily): 34.100 ng/mL
plasma concentration, Minimum (Plasma levels (LC/MS/MS); 20 mg once daily): 21.90 ng/mL
plasma concentration, Mean (Plasma levels (LC/MS/MS); 20 mg once daily): 35.033 ng/mL
Structure (SMILES): CC(C)COc1ccc(CNC(=O)N(Cc2ccc(F)cc2)C2CCN(C)CC2)cc1 [N-(1-methylpiperidin-4-yl)-N-(4-fluorophenylmethyl)-N′-(4-(2-methylpropyloxy)phenylmethyl)carbamide]

Structure (SMILES): CC(C)COc1ccc(CN2C(=O)OC3(CCN(C)CC3)C2Cc2ccc(F)cc2)cc1.Cl (racemic) [Example 69NLS75, 4-(4-Fluorobenzyl)-3-(4-isobutoxybenzyl)-8-methyl-1-oxa-3,8-diazaspiro[4.5]decan-2-one, hydrochloride]
EC50 (D2; agonist): > 3.16 µM
IC50 (D2; antagonist): > 3.16 µM
EC50 (H1): > 3.16 µM
EC50 (5HT2C; agonist, read-out: pEC50 or pIC50 (converted)): > 3.16 µM
efficacy in brackets (5HT2C; inverse): 77%
EC50 (5HT2B; agonist): > 3.16 µM
IC50 (5HT2B; antagonist): > 3160 nM
IC50 (5HT2B; inverse): > 2510 nM
EC50 (5HT1F; agonist): > 3.16 µM
IC50 (5HT1F; antagonist): > 3.16 µM
EC50 (5HT1D; agonist): > 3.16 µM
IC50 (5HT1D; antagonist): > 562 nM
EC50 (5HT1B; agonist): > 3.16 µM
IC50 (5HT1B; antagonist): > 3.16 µM
